Drawing on US6034136A, “Certain cyclic thio substituted acylaminoacid amide derivatives” (Novartis AG, priority 1998, dated 2000), this text covers IC50 for 2 molecules.

Format in all cases: biochemical
The target of assay [1] is T1, Human recombinant fibroblast collagenase (collagenase-1) (Homo sapiens, UniProt P03956).
T1 sequence (P03956 100-469): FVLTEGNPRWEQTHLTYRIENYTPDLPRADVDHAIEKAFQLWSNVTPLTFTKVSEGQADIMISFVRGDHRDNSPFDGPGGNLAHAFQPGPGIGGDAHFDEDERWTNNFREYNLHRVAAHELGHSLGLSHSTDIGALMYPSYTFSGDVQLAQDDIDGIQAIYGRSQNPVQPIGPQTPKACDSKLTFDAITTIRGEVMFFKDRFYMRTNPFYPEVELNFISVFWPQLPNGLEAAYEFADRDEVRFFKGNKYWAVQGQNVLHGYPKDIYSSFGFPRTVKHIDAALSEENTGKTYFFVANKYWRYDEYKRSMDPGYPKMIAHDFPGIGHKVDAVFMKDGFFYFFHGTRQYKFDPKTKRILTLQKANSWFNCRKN
In words: Collagenase-1 inhibitory activity (bovine type I collagen digestion, Coomasie blue). The conditions noted are these: 2 hours at 35° C., read-out: IC50 for inhibition of collagenase-1 activity. The procedure: Collagenase -1 inhibitory activity is determined as follows: ninety six-well, flat-bottom microtiter plates are first coated with bovine type I collagen (35 ug/well) over a two-day period at 30° C. using a humidified and then dry atmosphere; plates are rinsed, air dried for 3-4 hours, sealed with Saran wrap and stored in a refrigerator. Human recombinant fibroblast collagenase and a test compound (or buffer) are added to wells (total volume=0.1 ml) and plates are incubated for 2 hours at 35° C. under humidified conditions; the amount of collagenase used per well is that causing approximately 80% of maximal digestion of collagen. The incubation media are removed from the wells, which are then rinsed with buffer, followed by water. […] Sodium dodecyl sulfate (20% in 50% dimethylformamide in water) is added to solubilize the remaining stained collagen and the optical density at 570 nm wave length is measured. The decrease in optical density due to collagenase (from that of collagen without enzyme) is compared to the decrease in optical density due to the enzyme in the presence of test compound, and percent inhibition of enzyme activity is calculated. IC50 's are determined from a range of concentrations of inhibitors (4-5 concentrations, each tested in triplicate), and KI values are calculated. […]

A further assay deals with collagenase-3 (Homo sapiens, UniProt P45452). In words: Collagenase-3 inhibitory activity (fluorescent substrate MCA-Pro-Leu-Gly-Dpa-Ala-Arg-NH2). The settings on record: room temperature, 10 minutes preincubation, fluorescence; read-out: IC50 for inhibition of collagenase-3 activity. How it is done:
Collagenase-3 inhibitory activity is determined as follows:
[…] solutions of substrate (MCA-Pro-Leu-Gly-Dpa-Ala-Arg-NH2, J. Biol. Chem. 271, 1544-1550, 1996) and 10 nM stock solution of inhibitor are prepared in DMSO. They are diluted with assay buffer ([…] at pH 7.5 containing 10 mM CaCl2, 0.002% sodium azide) as needed. Recombinant pro-collagenase-3 is activated with 1 mM APMA, and stored in the assay buffer after extensive dialysis in the assay buffer. Recombinant enzyme solution (0.05 ml, 1.3 nM) is mixed with 0.05 mL of inhibitor solution at various concentrations for 10 minutes at room temperature. Then 0.025 mL of 8 μM substrate solution is added and fluorescence (λex=325; λem=405) is continuously measured at room temperature. The percent inhibition of collagenase-3 activity is determined from the effect of inhibitor at various concentrations on the change in fluorescence; the IC50 is determined graphically.
Compounds of formula I have an IC50 of about 5 nM to about 100 nM for inhibition of collagenase-3 activity.

In assay [2] the target is recombinant human stromelysin (Homo sapiens, UniProt P08254). In words: inhibition of stromelysin activity (hydrolysis of Substance P, HPLC). The conditions noted are these: Substance P substrate, 30 minutes at 37° C. How it is done: One test to determine the inhibition of stromelysin activity is based on its hydrolysis of Substance P using a modified procedure of Harrison et al (Harrison, R. A., Teahan J., and Stein R., A semicontinuous, high performance chromatography based assay for stromelysin, Anal. Biochem. 180, 110-113 (1989)). In this assay, Substance P is hydrolyzed by recombinant human stromelysin to generate a fragment, Substance P 7-11, which can be quantitated by HPLC. In a typical assay, a 10 mM stock solution of a compound to be tested is diluted in the assay buffer to 50 μM, mixed 1:1 with 8 μg recombinant human stromelysin (mol. wt. 45-47 kDa, 2 Units; where 1 Unit produces […] of Substance P 7-11 in 30 minutes) and incubated along with 0.5 mM Substance P in a final volume of 0.125 ml for 30 minutes at 37° C. The reaction is stopped by adding 10 mM EDTA and Substance P 7-11 is quantified on RP-8 HPLC. The IC50 for inhibition of stromelysin activity and Ki are calculated from control reaction without the inhibitor.
Compounds of formula I have an IC50 of about 10 nM to about 5 μM for inhibition of stromelysin activity.

pIC50: −log10 of the molar value.

Sequence of recombinant human stromelysin (P08254 100-477): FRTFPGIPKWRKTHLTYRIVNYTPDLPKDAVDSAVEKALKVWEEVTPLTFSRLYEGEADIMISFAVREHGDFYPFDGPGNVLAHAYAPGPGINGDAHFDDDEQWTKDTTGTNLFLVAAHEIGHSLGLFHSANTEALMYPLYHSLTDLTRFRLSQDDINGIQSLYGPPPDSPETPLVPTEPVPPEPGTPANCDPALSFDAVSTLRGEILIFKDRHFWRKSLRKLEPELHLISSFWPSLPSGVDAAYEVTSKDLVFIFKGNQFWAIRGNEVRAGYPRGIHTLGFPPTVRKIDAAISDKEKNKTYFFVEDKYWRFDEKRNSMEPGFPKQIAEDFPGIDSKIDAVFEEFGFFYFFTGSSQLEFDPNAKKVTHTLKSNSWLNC

The pIC50 is the IC50 on a negative log10 scale, so that one unit is a factor of ten. On to `CNC(=O)[C@H](Cc1ccccc1)NC(=O)C1(C(S)CCc2ccccc2)CCCCC1` (stereo partly drawn) [2(d), (S)-2-[N-(1-(1-mercapto-3-phenylpropyl)-cyclohexanecarbonyl)amino]-3-phenylpropionic acid N-methylamide], for which the negative logarithm of the IC50 (pIC50) in assay [1] is roughly 6.70; at collagenase-3, roughly 7.70.
With `CCO[C@H]1CC[C@@](CS)(C(=O)N[C@@H](Cc2ccccc2)C(=O)Nc2ccccc2)CC1` [2(e), (S)-2-[N-(1-mercaptomethyl-cis-4-ethoxycyclohexanecarbonyl)amino]-3-phenylpropionic acid N-phenylamide], in assay [2], the negative-log IC50 (pIC50) was roughly 7.15.
